In US20250082763A1, “COMBINATION DRUG FOR TREATING TRIPLE-NEGATIVE BREAST CANCER” (HINOVA PHARMACEUTICALS INC., priority 2022, published 2025):
Like-named read-outs stand apart in the source and are kept apart here.

Legend:
Type in all cases: cell-based
HCC1937 = experiment: Antiproliferation, CellTiter-Glo, 5 days, HCC1937; conditions: HCC1937, AR− TNBC
Procedure: (§1) For MDA-MB-453, MFM-223, SUM159PT, MDA-MB-468, and HCC1937, 4,000, 3,000, 1,000, 3,000, and 3,000 cells were plated per well in 96-well microplates (Corning Inc), respectively. Cells were treated with serial dilutions of tested compounds with the maximum working concentration of 10 μM. Cell survival was measured 5 days later using a CellTiter-Glo luminescent cell viability assay kit (Promega Corporation). Luminescence was recorded by FLUOstar Omega microplate reader (BMG Labtech). Half maximal inhibitory concentration (IC50) was determined with GraphPad Prism using baseline correction (by normalizing to dimethyl sulfoxide (DMSO) control)

SUM159PT = experiment: Antiproliferation, CellTiter-Glo, 5 days, SUM159PT; conditions: AR+ TNBC
Procedure: as §1, with “Cells” for “For MDA-MB-453, MFM-223, SUM159PT, MDA-MB-468, and HCC1937, 4,000, 3,000, 1,000, 3,000, and 3,000 cells were plated per well in 96-well microplates (Corning Inc), respectively. Cells”

MDA-MB-468 = experiment: Antiproliferation, CellTiter-Glo, 5 days, MDA-MB-468; conditions: MDA-MB-468, AR− TNBC
Procedure: as §1

MDA-MB-453 cells [1] = experiment: Combination with PI3K inhibitor Alpelisib, proliferation of MDA-MB-453 cells, Combination Index; conditions: molar ratio to Alpelisib 1:27-9:1, 7 days
Procedure: (§2) Triple negative breast cancer MDA-MB-453 cells in logarithmic growth stage were inoculated into a 96-well plate at a concentration of 4×10^3 cells/well, and then incubated in an incubator at 37° C., 5% CO2, and saturated humidity for 24 h. To the negative control wells, were added RPMI 1640 cell culture medium containing 10% fetal bovine serum in the same volume as the drug. After cultured for 24 h, to the 96-well plate, were sequentially added AR PROTACs compounds 279, 281, 282, ARV-110, ARV-766 and PI3K inhibitor Alpelisib, respectively.
(§3) After addition of the drugs and co-incubation for 7 days, 10 μL of CCK-8 was added to each well, and then the plate was further cultured for 2 h. The absorbance value (OD) of each well was measured using a microplate reader at a wavelength of 450 nm. The survival rate was calculated using Prism software, the relative survival rate=(OD value of drug well/OD value of control well)×100%. Alternatively, 100 μL of medium was removed from each well, and then 50 μL of CTG was added. The plate was shaken in the dark for 2 min, allowed to stand for 10 min, and then measured using a microplate reader in Luminescence mode. Prism software was used to calculate the survival rate, the relative survival rate=(the RLU value of drug well/the RLU value of control well)×100%.

MDA-MB-453 = experiment: Antiproliferation, CellTiter-Glo, 5 days, MDA-MB-453; conditions: MDA-MB-453, AR+ TNBC
Procedure: as §1

MDA-MB-453 cells [2] = experiment: Combination with PI3K inhibitor Idelalisib, proliferation of MDA-MB-453 cells, Combination Index; conditions: molar ratio to Idelalisib 1:270-1:3.333, 7-10 days
Procedure: as §2, with “Idelalisib,” for “Alpelisib,”
as §3, with “adding” for “addition of”, “co-incubating” for “co-incubation”, “7-10” for “7”

MFM-223 = experiment: Antiproliferation, CellTiter-Glo, 5 days, MFM-223; conditions: MFM-223, AR+ TNBC
Procedure: as §1

MDA-MB-453 cells [3] = experiment: Inhibition of proliferation of MDA-MB-453 cells (CCK-8 or CTG, 7-10 days); conditions: for IC50: co-incubation 7-10 days, CCK-8 or CTG, read-out: IC50 values against MDA-MB-453 cells
Procedure: Triple negative breast cancer MDA-MB-453 cells in logarithmic growth stage were inoculated into a 96-well plate at a concentration of 4×10^3 cells/well, and then incubated in an incubator at 37° C., 5% CO2, and saturated humidity for 24 h or 48 h. To the negative control well, was added RPMI 1640 cell medium containing 10% fetal bovine serum in the same volume as the drug. After cultured for 24 h or 48 h, to the 96-well plate, were added AR PROTACs compounds 162, 177, 230, 259, 279, 281, 282, 325, 357, 400, ARV-110, ARV-766 and AR inhibitor HC-1119, respectively. The concentrations of compounds 177, 230, 259, 279, 281, 282, 325, 357, 400, ARV-110, and ARV-766 are 0 μM, 0.002 μM, 0.005 μM, 0.014 μM, 0.041 μM, 0.123 μM, 0.370 μM, 1.111 μM, 3.333 μM or 10 μM; while the concentrations of HC-1119 are 0 μM, 1.23 μM, 3.70 μM, 11.11 μM, 33.33 μM or 100 μM.
as §3, with “7-10” for “7”

MDA-MB-453 cells [4] = experiment: Combination with chemotherapeutic drug Paclitaxel, proliferation of MDA-MB-453 cells, Combination Index; conditions: molar ratio to Paclitaxel 20:1-5000:1, 7 days
Procedure: as §2, with “ARV-110” for “ARV-110, ARV-766”, “chemotherapeutic drug Paclitaxel,” for “PI3K inhibitor Alpelisib,”
as §3, with “adding” for “addition of”, “co-incubating” for “co-incubation”

MDA-MB-453 cells [5] = experiment: Combination with PI3K inhibitor Duvelisib, proliferation of MDA-MB-453 cells, Combination Index; conditions: molar ratio to Duvelisib 1:30-1:1.111, 7-10 days
Procedure: as §2, with “ARV-110” for “ARV-110, ARV-766”, “Duvelisib,” for “Alpelisib,”
as §3, with “adding” for “addition of”, “co-incubating” for “co-incubation”, “7-10” for “7”

[6] = tested on: AR+ TNBC cells (MDA-MB-453, SUM159PT and MFM-223) and AR- TNBC (MDA-MB-468 and HCC1937); experiment: Antiproliferation in AR positive and negative TNBC cells (summary over the cell line panel); conditions: MDA-MB-453, SUM159PT, MFM-223, MDA-MB-468, HCC1937
Procedure: as §1

`COc1cc(O[C@H]2C(C)(C)[C@H](NC(=O)c3ccc(N4CCC(CN5CCN(c6ccc(C(=O)N[C@H]7CCC(=O)NC7=O)c(F)c6)CC5)CC4)cc3)C2(C)C)ccc1C#N` [ARV-766] was tested, and the IC50 (HCC1937; Homo sapiens, 120 h) was over 10000 nM, the IC50 (SUM159PT; Homo sapiens, SUM-159-PT, 120 h) was 380 nM and the IC50 (MDA-MB-468; Homo sapiens, 120 h) was over 10000 nM. The “effect of the combination with Alpelisib on inhibiting proliferation (CI<1 = synergistic)” value (MDA-MB-453 cells [1]) was “synergistic effect”, the IC50 (MDA-MB-453; Homo sapiens, 120 h) was 1100 nM and the “effect of the combination with Idelalisib on inhibiting proliferation (CI<1 = synergistic)” value (MDA-MB-453 cells [2]) was “synergistic effect”. It also gave an IC50 (MFM-223; Homo sapiens, 120 h) of 5400 nM and an IC50 (MDA-MB-453 cells [3]; Homo sapiens) of at most 2000 nM.

For `N#Cc1ccc(O[C@H]2CC[C@H](NC(=O)c3ccc(N4CCC5(CCN(CC6CCN(c7cc8c(cc7F)C(=O)N(C7CCC(=O)NC7=O)C8=O)CC6)C5)C4)nn3)CC2)cc1Cl` (stereo partly drawn) [Compound 162], the IC50 (MDA-MB-453 cells [3]; Homo sapiens) was over 2000 nM.

`N#Cc1ccc(O[C@H]2CC[C@H](NC(=O)c3cnc(N4C[C@@H]5[C@@H](CN6CCN(c7ccc8c(c7)C(=O)N(C7CCC(=O)NC7=O)C8=O)CC6)[C@@H]5C4)cn3)CC2)cc1Cl` (stereo partly drawn) [Compound 177] was tested, and the IC50 (MDA-MB-453 cells [3]; Homo sapiens) was over 2000 nM.

With `N#Cc1ccc(O[C@H]2CC[C@H](NC(=O)c3ccc(N4CCC(CN5CCC6(CC5)CN(c5ccc7c(c5)C(=O)N(C5CCC(=O)NC5=O)C7=O)C6)CC4)nn3)CC2)cc1Cl` (stereo partly drawn) [Compound 230] the IC50 (MDA-MB-453 cells [3]; Homo sapiens) was over 2000 nM.

Work on `N#Cc1ccc(O[C@H]2CC[C@H](NC(=O)c3ccc(N4CC5CN(CC6CCN(c7cc8c(cc7F)C(=O)N(C7CCC(=O)NC7=O)C8=O)CC6)CC5C4)nn3)CC2)cc1Cl` (stereo partly drawn) [Compound 259] yielded an IC50 (MDA-MB-453 cells [3]; Homo sapiens) of over 2000 nM.

`N#Cc1ccc(O[C@H]2CC[C@H](NC(=O)c3ccc(N4CCC(N5CCC6(CC5)CN(c5ccc7c(c5)C(=O)N(C5CCC(=O)NC5=O)C7=O)C6)CC4)nn3)CC2)cc1Cl` (stereo partly drawn) [Compound 281] was tested, and the “effect of the combination with Paclitaxel on inhibiting proliferation (CI<1 = synergistic)” value (MDA-MB-453 cells [4]) was “synergistic effect”, the “effect of the combination with Duvelisib on inhibiting proliferation (CI<1 = synergistic)” value (MDA-MB-453 cells [5]) was “synergistic effect” and the “effect of the combination with Alpelisib on inhibiting proliferation (CI<1 = synergistic)” value (MDA-MB-453 cells [1]) was “synergistic effect”. For the same compound, the “effect of the combination with Idelalisib on inhibiting proliferation (CI<1 = synergistic)” value (MDA-MB-453 cells [2]) was “synergistic effect” and the IC50 (MDA-MB-453 cells [3]; Homo sapiens) was at most 2000 nM.

In the case of `N#Cc1ccc(O[C@H]2CC[C@H](NC(=O)c3ccc(N4CC5(CCN(CC6CCN(c7ccc8c(c7)C(=O)N(C7CCC(=O)NC7=O)C8=O)CC6)CC5)C4)nn3)CC2)cc1Cl` (stereo partly drawn) [Compound 282], the “effect of the combination with Paclitaxel on inhibiting proliferation (CI<1 = synergistic)” value (MDA-MB-453 cells [4]) is reported as “synergistic effect”, the “effect of the combination with Duvelisib on inhibiting proliferation (CI<1 = synergistic)” value (MDA-MB-453 cells [5]) is reported as “synergistic effect” and the “effect of the combination with Alpelisib on inhibiting proliferation (CI<1 = synergistic)” value (MDA-MB-453 cells [1]) is reported as “synergistic effect”. The “effect of the combination with Idelalisib on inhibiting proliferation (CI<1 = synergistic)” value (MDA-MB-453 cells [2]) was “synergistic effect” and the IC50 (MDA-MB-453 cells [3]; Homo sapiens) was at most 2000 nM.

In the case of `CC1(C)[C@H](Oc2ccc(C#N)c(Cl)c2)C(C)(C)[C@H]1N1Cc2nc(C#C[C@H]3CC[C@H](N4CCN(c5ccc6c(c5)C(=O)N(C5CCC(=O)NC5=O)C6=O)CC4)CC3)ccc2C1=O` (stereo partly drawn) [Compound 325], the IC50 (MDA-MB-453 cells [3]; Homo sapiens) is reported as over 2000 nM.

`CC1(C)[C@H](Oc2ccc(C#N)c(Cl)c2)C(C)(C)[C@@H]1N1Cc2nc(C#C[C@H]3C[C@H](N4CCN(c5cc6c(cc5F)C(=O)N(C5CCC(=O)NC5=O)C6=O)CC4)C3)ccc2C1=O` (stereo partly drawn) [Compound 357] was tested, and the IC50 (MDA-MB-453 cells [3]; Homo sapiens) was at most 2000 nM.

Work on `COc1cc(O[C@H]2C(C)(C)[C@H](N3Cc4nc(C#C[C@H]5CC[C@H](N6CCN(c7ccc8c(c7)C(=O)N(C7CCC(=O)NC7=O)C8=O)CC6)CC5)ccc4C3=O)C2(C)C)ccc1C#N` (stereo partly drawn) [Compound 400] yielded an IC50 (MDA-MB-453 cells [3]; Homo sapiens) of at most 2000 nM.

In the case of `CNC(=O)c1ccc(N2C(=S)N(c3ccc(C#N)c(C(F)(F)F)c3)C(=O)C2(C)C)cc1F` [HC-1119], the IC50 (HCC1937) is reported as over 10000 nM, the IC50 (SUM159PT) is reported as over 10000 nM and the IC50 (MDA-MB-468) is reported as over 10000 nM. For the same compound, the IC50 (MDA-MB-453) was over 10000 nM, the IC50 (MFM-223) was over 10000 nM and the IC50 (MDA-MB-453 cells [3]) was over 2000 nM.

`[2H]C([2H])([2H])NC(=O)c1ccc(N2C(=S)N(c3ccc(C#N)c(C(F)(F)F)c3)C(=O)C2(C)C)cc1F` [HC-1119] was tested, and the “anti-proliferation activity in all five cell lines” value [6] was “failed to show anti-proliferation activity” and the “inhibitory effect on the proliferation of MDA-MB-453 cells” value (MDA-MB-453 cells [3]) was “weak inhibitory effect”.
